These results are taken from US20210392895A1, “NOVEL OXADIAZOLES” (PI INDUSTRIES LIMITED, priority 2018, published 2021).

Each structure is given as a SMILES string.

The assay deals with Phakopsora pachyrhizi. Nature of the assay: Phakopsora pachyrhizi test in soybean (greenhouse, preventive activity, disease severity rating). The note with it: preventive spray on soybean, compared to the untreated check. It counts as in vivo. As for the experimental part:
To test the preventive activity of compounds, healthy young soybean plants, raised in the greenhouse, were sprayed with the active compound solution at the stated application rates inside spray cabinets using hallowcone nozzles. One day after treatment, the plants were inoculated with a suspension containing 2.1×10^6 Phakopsora pachyrhizi spores. The inoculated plants were then kept in the greenhouse chamber at 25° C. temperature and 90% relative humidity for disease expression. A visual assessment of the compound's performance was carried out by rating the disease severity (0-100% scale) on treated plants on 3, 7, 10 and 15 days after application. Efficacy (% control) of the compounds was calculated by comparing the disease rating in the treatment with the one of the untreated control. The treated plants were also assessed for plant compatibility by recording symptoms like necrosis, chlorosis and stunting.
As a reminder, the pest or weed control is the degree to which the test organism was suppressed or injured, in per cent. High values mean strong suppression, low ones weak suppression. Turning to `O=C(c1cccc(Br)c1)N1CC[C@H](Oc2ccc(-c3noc(C(F)(F)F)n3)cc2)C1` [Compound 3, (S)-(3-bromophenyl)(3-(4-(5-(trifluoromethyl)-1,2,4-oxadiazol-3-yl)phenoxy)pyrrolidin-1-yl)methanone], the pest or weed control at 500 ppm is more than 70%.
In the case of `CN(C)c1ccc(C(=O)N2CC[C@H](Oc3ccc(-c4noc(C(F)(F)F)n4)cc3)C2)cc1` [Compound 8, (S)-(4-(dimethylamino)phenyl)(3-(4-(5-(trifluoromethyl)-1,2,4-oxadiazol-3-yl)phenoxy)pyrrolidin-1-yl)methanone] it was more than 70%; in that of `O=C(C1CCC1)N1CC[C@H](Oc2ccc(-c3noc(C(F)(F)F)n3)cc2)C1` [Compound 9, (S)-cyclobutyl(3-(4-(5-(trifluoromethyl)-1,2,4-oxadiazol-3-yl)phenoxy)pyrrolidin-1-yl)methanone], more than 70%; in that of `O=C(c1ccc(F)cc1)N1CC[C@H](Oc2ccc(-c3noc(C(F)(F)F)n3)cc2)C1` [Compound 14, (S)-(4-fluorophenyl)(3-(4-(5-(trifluoromethyl)-1,2,4-oxadiazol-3-yl)phenoxy)pyrrolidin-1-yl)methanone], more than 70%.
In the case of `O=C(c1ccccc1)N1CC[C@H](Oc2ccc(-c3noc(C(F)(F)F)n3)cc2)C1` [Compound 15, (S)-phenyl(3-(4-(5-(trifluoromethyl)-1,2,4-oxadiazol-3-yl)phenoxy)pyrrolidin-1-yl)methanone] it was more than 70%; in that of `O=C(c1cccc(Br)c1)N1CC(Oc2ccc(-c3noc(C(F)(F)F)n3)cc2)C1` [Compound 16, (3-bromophenyl)(3-(4-(5-(trifluoromethyl)-1,2,4-oxadiazol-3-yl)phenoxy)azetidin-1-yl)methanone], more than 70%.
`O=C(c1cccc(F)c1)N1CC(Oc2ccc(-c3noc(C(F)(F)F)n3)cc2)C1` [Compound 18, (3-fluorophenyl)(3-(4-(5-(trifluoromethyl)-1,2,4-oxadiazol-3-yl)phenoxy)azetidin-1-yl)methanone] had a pest or weed control at 500 ppm of more than 70%.
Next, `O=C(c1ccccc1F)N1CC(Oc2ccc(-c3noc(C(F)(F)F)n3)cc2)C1` [Compound 20, (2-fluorophenyl)(3-(4-(5-(trifluoromethyl)-1,2,4-oxadiazol-3-yl)phenoxy)azetidin-1-yl)methanone]: more than 70%; `O=S(=O)(Cc1ccccc1)N1CC(Oc2ccc(-c3noc(C(F)(F)F)n3)cc2)C1` [Compound 22, 3-(4-((1-(benzylsulfonyl)azetidin-3-yl)oxy)phenyl)-5-(trifluoromethyl)-1,2,4-oxadiazole]: more than 70%.
`CC(C)(C)OC(=O)N1CC[C@H](Oc2ccc(-c3noc(C(F)(F)F)n3)cc2)C1` [Compound 23, tert-butyl (S)-3-(4-(5-(trifluoromethyl)-1,2,4-oxadiazol-3-yl)phenoxy)pyrrolidine-1-carboxylate]: the pest or weed control at 500 ppm is more than 70%.
For the molecule `O=S(=O)(c1ccccc1)N1CC[C@H](Oc2ccc(-c3noc(C(F)(F)F)n3)cc2)C1` [Compound 25, (S)-3-(4-((1-(phenylsulfonyl)pyrrolidin-3-yl)oxy)phenyl)-5-(trifluoromethyl)-1,2,4-oxadiazole], the pest or weed control at 500 ppm was more than 70%.
Turning to `O=S(=O)(c1cccc(F)c1)N1CC[C@H](Oc2ccc(-c3noc(C(F)(F)F)n3)cc2)C1` [Compound 26, (S)-3-(4-((1-((3-fluorophenyl)sulfonyl)pyrrolidin-3-yl)oxy)phenyl)-5-(trifluoromethyl)-1,2,4-oxadiazole], the pest or weed control at 500 ppm was more than 70%.
In the case of `CC(C)(C)OC(=O)N1CC[C@H](Oc2ccc(-c3noc(C(F)(F)F)n3)nc2)C1` [Compound 27, tert-butyl (S)-3-((6-(5-(trifluoromethyl)-1,2,4-oxadiazol-3-yl)pyridin-3-yl)oxy)pyrrolidine-1-carboxylate] it was more than 70%.
Next, `O=C(c1ccccc1F)N1CC[C@H](Oc2ccc(-c3noc(C(F)(F)F)n3)nc2)C1` [Compound 28, (S)-(2-fluorophenyl)(3-((6-(5-(trifluoromethyl)-1,2,4-oxadiazol-3-yl)pyridin-3-yl)oxy)pyrrolidin-1-yl)methanone]: more than 70%; `COc1ccc(C(=O)N2CC[C@H](Oc3ccc(-c4noc(C(F)(F)F)n4)nc3)C2)cc1` [Compound 29, (S)-(4-methoxyphenyl)(3-((6-(5-(trifluoromethyl)-1,2,4-oxadiazol-3-yl)pyridin-3-yl)oxy)pyrrolidin-1-yl)methanone]: more than 70%.
Next, `O=C(c1cccc(F)c1)N1CC[C@H](Oc2ccc(-c3noc(C(F)(F)F)n3)nc2)C1` [Compound 30, (S)-(3-fluorophenyl)(3-((6-(5-(trifluoromethyl)-1,2,4-oxadiazol-3-yl)pyridin-3-yl)oxy)pyrrolidin-1-yl)methanone]: more than 70%; `O=C(c1cccnc1)N1CC[C@H](Oc2ccc(-c3noc(C(F)(F)F)n3)nc2)C1` [Compound 31, (S)-pyridin-3-yl(3-((6-(5-(trifluoromethyl)-1,2,4-oxadiazol-3-yl)pyridin-3-yl)oxy)pyrrolidin-1-yl)methanone]: more than 70%; `O=C(c1ccncc1)N1CC[C@H](Oc2ccc(-c3noc(C(F)(F)F)n3)nc2)C1` [Compound 32, (S)-pyridin-4-yl(3-((6-(5-(trifluoromethyl)-1,2,4-oxadiazol-3-yl)pyridin-3-yl)oxy)pyrrolidin-1-yl)methanone]: more than 70%.
Turning to `O=S(=O)(c1ccccc1F)N1CC[C@H](Oc2ccc(-c3noc(C(F)(F)F)n3)cc2)C1` [Compound 33, (S)-3-(4-((1-((2-fluorophenyl)sulfonyl)pyrrolidin-3-yl)oxy)phenyl)-5-(trifluoromethyl)-1,2,4-oxadiazole], the pest or weed control at 500 ppm was more than 70%.
Regarding `COc1ccc(S(=O)(=O)N2CC[C@H](Oc3ccc(-c4noc(C(F)(F)F)n4)cc3)C2)cc1` [Compound 34, (S)-3-(4-((1-((4-methoxyphenyl)sulfonyl)pyrrolidin-3-yl)oxy)phenyl)-5-(trifluoromethyl)-1,2,4-oxadiazole], the pest or weed control at 500 ppm is more than 70%.
In the case of `O=S(=O)(c1ccc(F)cc1)N1CC[C@H](Oc2ccc(-c3noc(C(F)(F)F)n3)cc2)C1` [Compound 35, (S)-3-(4-((1-((4-fluorophenyl)sulfonyl)pyrrolidin-3-yl)oxy)phenyl)-5-(trifluoromethyl)-1,2,4-oxadiazole] it was more than 70%.
In the case of `O=C(c1ccc(OC(F)(F)F)cc1)N1CC[C@H](Oc2ccc(-c3noc(C(F)(F)F)n3)cc2)C1` [Compound 36, (S)-(4-(trifluoromethoxy)phenyl)(3-(4-(5-(trifluoromethyl)-1,2,4-oxadiazol-3-yl)phenoxy)pyrrolidin-1-yl)methanone] it was more than 70%; in that of `O=C(Nc1ccccc1F)N1CC[C@H](Oc2ccc(-c3noc(C(F)(F)F)n3)cc2)C1` [Compound 37, (S)—N-(2-fluorophenyl)-3-(4-(5-(trifluoromethyl)-1,2,4-oxadiazol-3-yl)phenoxy)pyrrolidine-1-carboxamide], more than 70%; in that of `O=C(Nc1ccc(F)cc1)N1CC[C@H](Oc2ccc(-c3noc(C(F)(F)F)n3)cc2)C1` [Compound 38, (S)-N-(4-fluorophenyl)-3-(4-(5-(trifluoromethyl)-1,2,4-oxadiazol-3-yl)phenoxy)pyrrolidine-1-carboxamide], more than 70%.
Next, `O=S(=O)(C1CC1)N1CC[C@H](Oc2ccc(-c3noc(C(F)(F)F)n3)cc2)C1` [Compound 41, (S)-3-(4-((1-(cyclopropylsulfonyl)pyrrolidin-3-yl)oxy)phenyl)-5-(trifluoromethyl)-1,2,4-oxadiazole]: more than 70%; `O=S(=O)(c1ccc(F)cc1F)N1CC[C@H](Oc2ccc(-c3noc(C(F)(F)F)n3)cc2)C1` [Compound 42, (S)-3-(4-((1-((2,4-difluorophenyl)sulfonyl)pyrrolidin-3-yl)oxy)phenyl)-5-(trifluoromethyl)-1,2,4-oxadiazole]: more than 70%; `O=C(C1CC1)N1CC[C@H](Oc2ccc(-c3noc(C(F)(F)F)n3)cc2)C1` [Compound 43, (S)-cyclopropyl(3-(4-(5-(trifluoromethyl)-1,2,4-oxadiazol-3-yl)phenoxy)pyrrolidin-1-yl)methanone]: more than 70%.
For the molecule `O=C(c1ccc(Cl)cc1)N1CC[C@H](Oc2ccc(-c3noc(C(F)(F)F)n3)cc2)C1` [Compound 44, (S)-(4-chlorophenyl)(3-(4-(5-(trifluoromethyl)-1,2,4-oxadiazol-3-yl)phenoxy)pyrrolidin-1-yl)methanone], the pest or weed control at 500 ppm was more than 70%.
Next, `COc1ccc(C(=O)N2CC[C@H](Oc3ccc(-c4noc(C(F)(F)F)n4)cn3)C2)cc1` [Compound 46, (S)-(4-methoxyphenyl)(3-((5-(5-(trifluoromethyl)-1,2,4-oxadiazol-3-yl)pyridin-2-yl)oxy)pyrrolidin-1-yl)methanone]: more than 70%; `O=C(c1cccc(F)c1)N1CC[C@H](Oc2ccc(-c3noc(C(F)(F)F)n3)cn2)C1` [Compound 47, (S)-(3-fluorophenyl)(3-((5-(5-(trifluoromethyl)-1,2,4-oxadiazol-3-yl)pyridin-2-yl)oxy)pyrrolidin-1-yl)methanone]: more than 70%.
Regarding `CCS(=O)(=O)N1CC[C@H](Oc2ccc(-c3noc(C(F)(F)F)n3)cn2)C1` [Compound 50, (S)-3-(6-((1-(ethylsulfonyl)pyrrolidin-3-yl)oxy)pyridin-3-yl)-5-(trifluoromethyl)-1,2,4-oxadiazole], the pest or weed control at 500 ppm is more than 70%.
